Laboratory results published in PubChem BioAssay AID2060510 (Molecular Pharmacology Branch, DTP, NCI, 2025).

Tested on: 439559-082-T-J2-PDC spheroids viability
Test: Anticancer human tumor 439559-082-T-J2-PDC patient-derived colon adenocarcinoma cell line growth inhibition [GQUAD]
Settings: for IC50: curve of first compound; for viability, T/C: stronger effect = lower value; active means viability on the fitted dose curve at most 10% of control; inactive means the rest
Summary of the method: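 Viability of tumor cells grown as complex spheroids with endothelial and stromal cells, exposed to drug combinations. Top concentration at or near clinical Cmax (else 10 microM), diluted in half-log increments.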

[1] = second compound 0.0316 µM, first compound 0.0316 µM
[2] = second compound 0.0316 µM, first compound 0.1 µM
[3] = second compound 0.0316 µM, first compound 0.316 µM
[4] = second compound 0.0316 µM, first compound 1 µM
[5] = second compound 0.0316 µM, first compound 3.16 µM
[6] = second compound 0.0316 µM, first compound 10 µM
[7] = second compound 0.1 µM, first compound 0.0316 µM
[8] = second compound 0.1 µM, first compound 0.1 µM
[9] = second compound 0.1 µM, first compound 0.316 µM
[10] = second compound 0.1 µM, first compound 1 µM
[11] = second compound 0.1 µM, first compound 3.16 µM
[12] = second compound 0.1 µM, first compound 10 µM
[13] = second compound 0.316 µM, first compound 0.0316 µM
[14] = second compound 0.316 µM, first compound 0.1 µM
[15] = second compound 0.316 µM, first compound 0.316 µM
[16] = second compound 0.316 µM, first compound 1 µM
[17] = second compound 0.316 µM, first compound 3.16 µM
[18] = second compound 0.316 µM, first compound 10 µM
[19] = second compound 1 µM, first compound 0.0316 µM
[20] = second compound 1 µM, first compound 0.1 µM
[21] = second compound 1 µM, first compound 0.316 µM
[22] = second compound 1 µM, first compound 1 µM
[23] = second compound 1 µM, first compound 3.16 µM
[24] = second compound 1 µM, first compound 10 µM
[25] = second compound 3.16 µM, first compound 0.0316 µM
[26] = second compound 3.16 µM, first compound 0.1 µM
[27] = second compound 3.16 µM, first compound 0.316 µM
[28] = second compound 3.16 µM, first compound 1 µM
[29] = second compound 3.16 µM, first compound 3.16 µM
[30] = second compound 3.16 µM, first compound 10 µM
[31] = second compound 10 µM, first compound 0.0316 µM
[32] = second compound 10 µM, first compound 0.1 µM
[33] = second compound 10 µM, first compound 0.316 µM
[34] = second compound 10 µM, first compound 1 µM
[35] = second compound 10 µM, first compound 3.16 µM
[36] = second compound 10 µM, first compound 10 µM
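Further: spheroids exposed to the agents for 7 days before readout.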
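Wherever viability, T/C is given: percent of luminescence signal in DMSO vehicle wells taken as 100% viability.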

COc1cc(C2c3cc4c(cc3C(OC3OC5COC(C)OC5C(O)C3O)C3COC(=O)C23)OCO4)cc(OC)c1O (stereo unspecified) + CN(C)c1ccc(Nc2c3ccc(NC(=O)CCN4CCCC4)cc3nc3cc(NC(=O)CCN4CCCC4)ccc23)cc1
> 10 µM: IC50 (second compound 0.0316 µM) | IC50 (second compound 0.1 µM) | IC50 (second compound 0.316 µM) | IC50 (second compound 1 µM) | IC50 (second compound 3.16 µM) | IC50 (second compound 10 µM)
inactive: viability, T/C [1] 102% | viability, T/C [2] 93.9% | viability, T/C [3] 103% | viability, T/C [4] 85.6% | viability, T/C [5] 87.1% | viability, T/C [6] 63.8% | viability, T/C [7] 96.4% | viability, T/C [8] 91.8% | viability, T/C [9] 98.4% | viability, T/C [10] 94.7% | viability, T/C [11] 85% | viability, T/C [12] 61.9% | viability, T/C [13] 104% | viability, T/C [14] 104% | viability, T/C [15] 89.6% | viability, T/C [16] 89% | viability, T/C [17] 78.6% | viability, T/C [18] 59.9% | viability, T/C [19] 104% | viability, T/C [20] 94.2% | viability, T/C [21] 89.6% | viability, T/C [22] 90% | viability, T/C [23] 76.5% | viability, T/C [24] 57% | viability, T/C [25] 98% | viability, T/C [26] 87.1% | viability, T/C [27] 104% | viability, T/C [28] 92.5% | viability, T/C [29] 92.4% | viability, T/C [30] 63.3% | viability, T/C [31] 98.5% | viability, T/C [32] 93.3% | viability, T/C [33] 94.9% | viability, T/C [34] 91.3% | viability, T/C [35] 75.9% | viability, T/C [36] 54.5%

Nc1ccn(C2OC(CO)C(O)C2(F)F)c(=O)n1 (stereo unspecified) + CN(C)c1ccc(Nc2c3ccc(NC(=O)CCN4CCCC4)cc3nc3cc(NC(=O)CCN4CCCC4)ccc23)cc1
0.261 µM: IC50 (second compound 0.0316 µM)
0.232 µM: IC50 (second compound 0.316 µM)
0.17 µM: IC50 (second compound 10 µM)
0.209 µM: IC50 (second compound 3.16 µM)
0.237 µM: IC50 (second compound 1 µM)
0.263 µM: IC50 (second compound 0.1 µM)
inactive: viability, T/C [1] 78.2% | viability, T/C [2] 65.2% | viability, T/C [3] 46.7% | viability, T/C [4] 32.3% | viability, T/C [5] 25.2% | viability, T/C [6] 20.5% | viability, T/C [7] 85.3% | viability, T/C [8] 70.4% | viability, T/C [9] 42.6% | viability, T/C [10] 36.3% | viability, T/C [11] 26.2% | viability, T/C [12] 23% | viability, T/C [13] 84.8% | viability, T/C [14] 68.6% | viability, T/C [15] 42.5% | viability, T/C [16] 29.2% | viability, T/C [17] 26.8% | viability, T/C [18] 20.8% | viability, T/C [19] 87% | viability, T/C [20] 65.7% | viability, T/C [21] 45.8% | viability, T/C [22] 28.2% | viability, T/C [23] 23.1% | viability, T/C [24] 19.5% | viability, T/C [25] 86.5% | viability, T/C [26] 67.9% | viability, T/C [27] 38.7% | viability, T/C [28] 28.9% | viability, T/C [29] 24.4% | viability, T/C [30] 19.7% | viability, T/C [31] 76.9% | viability, T/C [32] 59.9% | viability, T/C [33] 39.3% | viability, T/C [34] 18.5% | viability, T/C [35] 23.2% | viability, T/C [36] 18.7%

O=c1[nH]cc(F)c(=O)[nH]1 + CN(C)c1ccc(Nc2c3ccc(NC(=O)CCN4CCCC4)cc3nc3cc(NC(=O)CCN4CCCC4)ccc23)cc1
> 10 µM: IC50 (second compound 0.0316 µM) | IC50 (second compound 0.1 µM) | IC50 (second compound 0.316 µM) | IC50 (second compound 1 µM) | IC50 (second compound 3.16 µM) | IC50 (second compound 10 µM)
inactive: viability, T/C [1] 101% | viability, T/C [2] 103% | viability, T/C [3] 86.6% | viability, T/C [4] 81.2% | viability, T/C [5] 75.7% | viability, T/C [6] 76% | viability, T/C [7] 115% | viability, T/C [8] 106% | viability, T/C [9] 89% | viability, T/C [10] 84.1% | viability, T/C [11] 77.2% | viability, T/C [12] 69.1% | viability, T/C [13] 98.2% | viability, T/C [14] 105% | viability, T/C [15] 85.9% | viability, T/C [16] 80.4% | viability, T/C [17] 75% | viability, T/C [18] 75.2% | viability, T/C [19] 97.2% | viability, T/C [20] 104% | viability, T/C [21] 89% | viability, T/C [22] 81.3% | viability, T/C [23] 74.6% | viability, T/C [24] 81.8% | viability, T/C [25] 88.8% | viability, T/C [26] 102% | viability, T/C [27] 85.5% | viability, T/C [28] 73.9% | viability, T/C [29] 73.3% | viability, T/C [30] 72.1% | viability, T/C [31] 96.4% | viability, T/C [32] 93.1% | viability, T/C [33] 81.5% | viability, T/C [34] 74.6% | viability, T/C [35] 70.2% | viability, T/C [36] 73.5%
